This note sets out measurements from US7915291B2, “Hepatitis C virus inhibitors” (Bristol-Myers Squibb Company, priority 2002, dated 2011).

The target in assay [1] is HCV NS3/4A protease complex, BMS strain (UniProt P27958, C1454S/C1711G, species not given/STRAIN_BMS). The experiment in a line: Recombinant HCV NS3/4A protease complex FRET peptide assay (BMS strain). It counts as biochemical, HCV genotype 1a. Summed up: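 Percent inhibition taken from the linear-range fluorescence slope relative to uninhibited control, read kinetically for about 15 min at 25° C. Enzyme (2-3 nM, BMS NS3/4A complex, lysine-tailed, Ni-NTA purified) met compound for 1 min before 2 μM FRET depsipeptide substrate started cleavage.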

Assay [2] deals with HCV replicon in Huh7 cells. The experiment in a line: HCV replicon cell-based assay. On the set-up: species or system HCV strain 1B. The note with it: Hepatitis C virus, Huh-7; HCV replicon, Huh7 cells; read-out: EC50 range. In general terms: A replicon is a self-replicating genome or part of one, used to study replication in cells.
The mark [3] stands for this setting: NS3/4A BMS strain; read-out: IC50 range.
Setting [4] is: read-out: IC50 range; NS3/4A BMS strain.

Where two headings read alike, the source gives them in different places.

Broadly, the IC50 is the concentration at which inhibition is half-maximal. By EC50 is commonly meant the concentration at which the effect is half-maximal.

For the molecule `C=CC1C[C@]1(NC(=O)[C@@H]1C[C@@H](Oc2nccc(-c3ccccn3)n2)CN1C(=O)[C@@H](NC(=O)OC)C(C)(C)C)C(=O)NS(=O)(=O)C1CC1` (stereo partly drawn) [Compound 336], the IC50 in assay [1] (setting [3]) was 100 to 1000 nM. In addition, the 50% effective concentration (EC50) in assay [2] was 1 to 10 µM.
`C=CC1C[C@]1(NC(=O)[C@@H]1C[C@@H](Oc2nccc(-c3cccs3)n2)CN1C(=O)[C@@H](NC(=O)OC)C(C)(C)C)C(=O)NS(=O)(=O)C1CC1` (stereo partly drawn) [Compound 337]: the IC50 in assay [1] (setting [3]) fell in the range of 100 to 1000 nM. Besides, the EC50 in assay [2] is 1 to 10 µM.
Turning to `C=CC1C[C@]1(NC(=O)[C@@H]1C[C@@H](Oc2nccc(-c3cccs3)n2)CN1C(=O)[C@@H](NC(=O)CC1CC1)C(C)(C)C)C(=O)NS(=O)(=O)C1CC1` (stereo partly drawn) [Compound 338], the IC50 in assay [1] (setting [3]) is under 100 nM. Besides, in assay [2], the 50% effective concentration (EC50) lay in the range of 1 to 10 µM.
`C=CC1C[C@]1(NC(=O)[C@@H]1C[C@@H](Oc2nccc(-c3ccco3)n2)CN1C(=O)[C@@H](NC(=O)CC1CC1)C(C)(C)C)C(=O)NS(=O)(=O)C1CC1` (stereo partly drawn) [Compound 339]: the IC50 in assay [1] (setting [3]) is under 100 nM. Further, the concentration giving a half-maximal response (EC50) in assay [2] was in the range of 1 to 10 µM.
In the case of `C=CC1C[C@]1(NC(=O)[C@@H]1C[C@@H](Oc2nccc(-c3nccs3)n2)CN1C(=O)[C@@H](NC(=O)CC1CC1)C(C)(C)C)C(=O)NS(=O)(=O)C1CC1` (stereo partly drawn) [Compound 340], the half-inhibitory concentration (IC50) in assay [1] (setting [3]) is under 100 nM. Moreover, in assay [2], the EC50 was 10 to 100 µM.
Turning to `C=CC1C[C@]1(NC(=O)[C@@H]1C[C@@H](COc2cccc(Br)c2)CN1C(=O)[C@@H](NC(=O)OC)C(C)(C)C)C(=O)NS(=O)(=O)C1CC1` (stereo partly drawn) [Compound 345], the 50% inhibitory concentration (IC50) in assay [1] (setting [3]) was in the range of 1000 to 10000 nM. For the same molecule, in assay [2], the EC50 fell in the range of 10 to 100 µM.
On to `C=CC1C[C@]1(NC(=O)[C@@H]1C[C@@H](COc2cncc(-c3ccsc3)c2)CN1C(=O)[C@@H](NC(=O)OC)C(C)(C)C)C(=O)NS(=O)(=O)C1CC1` (stereo partly drawn) [Compound 347], for which the IC50 in assay [1] (setting [4]) is 100 to 1000 nM. Besides, the concentration for a half-maximal effect (EC50) in assay [2] is 10 to 100 µM.
Take `C=CC1C[C@]1(NC(=O)[C@@H]1C[C@@H](COc2ccnc(-c3cccs3)c2)CN1C(=O)[C@@H](NC(=O)OC)C(C)(C)C)C(=O)NS(=O)(=O)C1CC1` (stereo partly drawn) [Compound 350]: the IC50 in assay [1] (setting [4]) was in the range of 100 to 1000 nM. Moreover, the half-maximal effective concentration (EC50) in assay [2] lay within 10 to 100 µM.
On to `C=CC1C[C@]1(NC(=O)[C@@H]1C[C@@H](COc2cccc(-c3ccoc3)n2)CN1C(=O)[C@@H](NC(=O)OC)C(C)(C)C)C(=O)NS(=O)(=O)C1CC1` (stereo partly drawn) [Compound 355], for which the half-maximal inhibitory concentration (IC50) in assay [1] (setting [3]) is 100 to 1000 nM. Further, the EC50 in assay [2] lay within 10 to 100 µM.
The like results for `C=CC1C[C@]1(NC(=O)[C@@H]1C[C@@H](COc2cccc(-c3cccs3)n2)CN1C(=O)[C@@H](NC(=O)OC)C(C)(C)C)C(=O)NS(=O)(=O)C1CC1` (stereo partly drawn) [Compound 356] were, in that order, 100 to 1000 nM and 1 to 10 µM.
Turning to `C=CC1C[C@]1(NC(=O)[C@@H]1C[C@@H](Nc2nccc3ccccc23)CN1C(=O)[C@@H](NC(=O)OC(C)(C)C)C(C)(C)C)C(=O)NS(=O)(=O)C1CC1` (stereo partly drawn) [Compound 357], in assay [1] (setting [4]), the IC50 is under 100 nM. Further, the EC50 in assay [2] was in the range of 0.1 to 1 µM.
As for `C=C[C@@H]1C[C@]1(NC(=O)[C@@H]1C[C@@H](Oc2cc(-c3csc(NC(C)C)n3)nc3cc(OC)ccc23)CN1C(=O)[C@@H](NC(=O)OC(C)(C)C)C(C)(C)C)C(=O)NS(=O)(=O)C1CC1` [Compound 370], the half-inhibitory concentration (IC50) in assay [1] (setting [4]) was 100 to 1000 nM. Moreover, the EC50 in assay [2] is 1 to 10 µM.
On to `C=C[C@@H]1C[C@]1(NC(=O)[C@@H]1C[C@@H](Oc2ccnc3cc(Cl)ccc23)CN1C(=O)[C@@H](NC(=O)OC(C)(C)C)C(C)(C)C)C(=O)NS(=O)(=O)C1CC1` [Compound 371], for which the IC50 in assay [1] (setting [3]) was under 100 nM. The EC50 in assay [2] was under 0.1 µM.
On to `C=C[C@@H]1C[C@]1(NC(=O)[C@@H]1C[C@@H](Oc2ccnc3cc(Cl)ccc23)CN1C(=O)[C@@H](NC(=O)OC1CCCC1)C(C)(C)C)C(=O)NS(=O)(=O)C1CC1` [Compound 372], for which, in assay [1] (setting [3]), the IC50 is under 100 nM. Besides, in assay [2], the concentration giving a half-maximal response (EC50) was under 0.1 µM.
Regarding `C=C[C@@H]1C[C@]1(NC(=O)[C@@H]1C[C@@H](Oc2cc(C3CC3)nc3cc(OC)ccc23)CN1C(=O)[C@@H](NC(=O)OC(C)(C)C)C(C)(C)C)C(=O)NS(=O)(=O)C1CC1` [Compound 373], the half-maximal inhibitory concentration (IC50) in assay [1] (setting [3]) is under 100 nM. Moreover, in assay [2], the concentration giving a half-maximal response (EC50) is under 0.1 µM.
